The source of these data is patent US20250213585A1, “COMPOSITIONS AND METHODS OF A CONCOMITANT THERAPY OF ALTERNATING ELECTRIC FIELDS AND NOTCH-1 INHIBITOR” (NOVOCURE GMBH, priority 2023, published 2025).

“Also recorded” adds a separate entry of the source.

One data set relates to cells. In words: Combination of Notch1 inhibitor with an alternating electric field (FIGS. 4, 8). The format is cell-based.
The test system of another data set is U251. In words: Cell viability of glioblastoma cell line U251 (FIGS. 6, 7). The class given is cell-based. How it is done: (§1) For short-term experiments, such as detecting the degradation process of glioblastoma cells under TTFields, U87, U251, LN229, and T98 cell suspensions (450 μL, 100,000 cells per well) were evenly spread on 24 mm cell culture slides. After overnight incubation, the cells were transferred to in vitro dishes and supplemented with 2 mL fresh culture medium. The treatment frequency was 200 kHz, with a treatment field strength of 1.62 V/cm RMS, for a duration of 24 hours. For long-term combination experiments, involving the combined use of RO4929097 or Notch1 gene knockdown with TTFields, cells (450 μL, 40,000 cells per well) were treated with a field strength of 1.19 V/cm RMS and a frequency of 200 kHz for 72 hours. The concentration of RO4929097 drug was varied. For organoid experiments, 3-5 GBOs were added to each well, and fresh GBO medium was replaced. The treatment field strength was 1.19 V/cm RMS, with a frequency of 200 kHz, for treatment durations of 24 and 48 hours.

In the next data set the test system is U87. Briefly: Cell viability of glioblastoma cell line U87 (FIGS. 6, 7). The class given is cell-based. How it is done:
as §1

The subject of the next data set is glioblastoma. Conditions: cited from earlier work.
Data set [1] has as its system patient-derived glioblastoma organoids (GBOs). Briefly: EdU staining of patient-derived glioblastoma organoids with TTFields (FIG. 13I). The format is cell-based. How it is done:
as §1

The subject of data set [2] is glioma cells. In words: Clonogenic (colony formation) assay after treatment (FIGS. 5, 10D). The format is cell-based. Here is the method: as §1, with “48 hours. Following treatment with TTFields and corresponding conditions, 500-1000 cells were selected from each group and seeded in 6-well dishes. The cells were cultured at 37 degrees Celsius with 5% CO2 for a period of 7-10 days, with medium replacement every 3 days. […]” for “48 hours.”

Data set [3] deals with glioma cells. In words: Sensitization of glioma cells to temozolomide (FIGS. 7, 10E). To be noted: Notch1 inhibitor in combination with temozolomide. The class given is cell-based.
The subject of data set [4] is glioma cell lines including U87, U251, and LN229. In words: Validation assays with TTFields in glioma cell lines (EdU incorporation, cell counting; FIGS. 10A-C). The format is cell-based. How it is done:
It was first analyzed whether Notch1 antagonization sensitized glioma cell lines to TTFields treatment. Validation assays were conducted across multiple glioma cell lines including U87, U251, and LN229. The Notch1 inhibitor RO4929097 was used to probe whether it synergizes with TTFields. […] In the validation assays, experimental cohorts were divided into four groups: control (DMSO), TTFields treatment alone, Notch1 inhibitor RO4929097, and TTFields plus RO4929097.
as §1

For another data set, the system named is Notch1 protein. Briefly: TTFields-mediated degradation of Notch1 protein with degradation pathway inhibitors (FIG. 11E). The format is cell-based. Conditions: TTFields treatment. The source says: Reduction of Notch1 level by TTFields was also confirmed by immunofluorescence staining (FIGS. 11C and D). The intracellular protein degradation mechanism primarily involves proteasomal and lysosomal degradation pathways. To further elucidate the mechanism of TTFields-mediated degradation of Notch1 protein, lysosomal inhibitor Leupeptin and proteasomal inhibitor MG132 were employed (FIG. 11E). […] Lysosomal degradation of proteins, particularly those located on cell membrane such as Notch1, often involves cell membrane.
Protein levels were evaluated through Western Blot analysis, following the established protocol. The antibodies employed in the study are listed below. Rabbit notch1 (Abcam, ab52627), Rabbit Cleaved Notch1 (CST, 4147S), Mouse anti-GAPDH (Abclonal, A19056), Rabbit anti-Tubulin (Abclonal, AC015), Rabbit anti-Hes1 (ab108937), rabbit anti-Hes5 (Abclonal A16237), rabbit anti-Hey1 (Abclonal A16110), rabbit anti-Myc (Selleck, A5011), anti-rabbit CD133 (Abcam, ab19898), anti-mouse Sox2 (Abcam, ab79351), anti-Rabbit Nestin (Abcam), and Anti-mouse lamp1.

The mark [5] stands for this setting: 5 μM Notch1 inhibitor alone, FIG. 6.
Where [6] appears, read: 5 μM Notch1 inhibitor alone, FIG. 7.
Setting [7] is: 20 μM Notch1 inhibitor alone, FIG. 6.
Where [8] appears, read: 20 μM Notch1 inhibitor alone, FIG. 7.
[9] abbreviates: 250 μM Temozolomide and 5 μM Notch1 inhibitor concomitant, FIG. 7.
Setting [10] is: 250 μM Temozolomide and 20 μM Notch1 inhibitor concomitant, FIG. 7.
The mark [11] stands for this setting: TTFields and 5 μM Notch1 inhibitor concomitant, FIG. 6.
The mark [12] stands for this setting: TTFields and 20 μM Notch1 inhibitor concomitant, FIG. 6.
[13] abbreviates: phase I and II clinical trials for glioblastoma.

Turning to `C[C@H](NC(=O)Cc1cc(F)cc(F)c1)C(=O)N[C@H](C(=O)OC(C)(C)C)c1ccccc1` [DAPT], the “therapeutic efficacy of the alternating electric field” value with cells (DAPT combined with an alternating electric field, FIG. 8) is listed as “enhances the therapeutic efficacy”.
Consider `Cn1nnc2c(C(N)=O)ncn2c1=O` [Temozolomide], for which the viability at 250 µM in the data set on U251 (Homo sapiens, U-251, 250 μM Temozolomide alone, FIG. 7) was found to be 75%; with U87 (Homo sapiens, U-87 MG, 250 μM Temozolomide alone, FIG. 7) it was 75%.
On to `CC(C)(C(=O)NCC(F)(F)C(F)(F)F)C(=O)N[C@@H]1C(=O)Nc2ccccc2-c2ccccc21` [RO4929097], for which the cell viability entry with U251 (setting [5]) was “no change in viability”; in the data set on U251 (setting [6]), “no change in viability”; in the data set with U251 (setting [7]), “around 60%”; in the data set on U251 (setting [8]), “around 80%”; with U251 (setting [9]), “no change in viability”; in the data set on U251 (setting [10]), “no change in viability”. Moreover, the cell viability in the data set with U251 (setting [11]) is given as 20%; in the data set on U251 (setting [12]), 20%; in the data set on U87 (setting [5]), 80%; in the data set with U87 (setting [6]), “no change in viability”; with U87 (setting [7]) it was “around 60%”; with U87 (setting [8]), “around 80%”. Further, the cell viability entry is “no change in viability” in the data set with U87 (setting [9]), “no change in viability” in the data set with U87 (setting [10]), 20% in the data set with U87 (setting [11]) and 20% with U87 (setting [12]). Also, in the data set on glioblastoma (glioblastoma / recurrent GB patients), the safety profile result is “favorable safety profile”. Moreover, in the data set on glioblastoma (setting [13]), the blood-brain barrier penetration result is “favorable blood-brain barrier penetration”. Moreover, the “expression of Notch1 downstream genes in tumor cells” value in the data set on glioblastoma (setting [13]) is on record as “reduce expression of Notch1 downstream genes”. In addition, the “sensitization of alternating electric field therapy” value in the data set with cells (RO4929097 combined with an alternating electric field, low-intensity, long duration, FIGS. 4 and 5) is “sensitizes alternating electric field therapy”. Besides, the “cytotoxicity by Edu staining in GBOs” value in data set [1] (Notch1 inhibitor alone) is recorded as “no apparent cytotoxicity”. Also, the “effect with TTFields by Edu staining in GBOs” value in data set [1] (combined with TTFields) is listed as “clear synergistic effect”. Besides, the “colonogenic abilities following re-seeding after treatment” value with glioma cells [2] (Notch1 inhibitor alone, FIG. 5) is “no significant impact”. Moreover, the “clonogenic ability / long-term proliferative potential” value with glioma cells [2] (Notch1 inhibitor combined with TTFields / alternating electric field, re-seeding after treatment) is “synergy; also recorded: sensitization effect”. The figures for the “sensitization to / killing by temozolomide (TMZ)” value in the data set with glioma cells [3], with glioma cells [3] (listed as Notch1 inhibitor) and in the data set with glioma cells [3] (listed as RO) were “did not sensitize”, “no effect” and “does not enhance killing”, respectively. Further, in [4] (RO4929097 alone, FIGS. 10A and B), the “cytotoxicity in EdU incorporation assays” value is “minimal cytotoxicity”. Besides, in data set [4] (RO4929097 combined with TTFields, FIGS. 10A and B), the “therapeutic sensitization in EdU incorporation assays” value was “noticeable enhancement in therapeutic sensitization”. The “growth suppression by TTFields” value in [4] (combined with TTFields, FIG. 10 legend) is reported as “enhances growth suppression”.
Take `CC(=O)N[C@@H](CC(C)C)C(=O)N[C@@H](CC(C)C)C(=O)N[C@H](C=O)CCCNC(=N)N` [Leupeptin]: the “effect on TTFields-induced degradation of Notch1 protein” value in the data set with Notch1 protein is given as “blocked”.

By viability is commonly meant a read-out of living cells in per cent, often relative to untreated cells. What is called cell viability is a per cent measure of how many cells are alive, often set against a control.
